The text below walks through data of patent US7825294B2 (priority 2006, dated 2010).

What all share (assay type): cell-based
For assay [1], the system named is Fusarium graminearum (FGR). Conditions: standard plate assay, 4,000 spores/mL, ¼× potato dextrose broth, 28° C., 24 to 48 hours.
In assay [2] the test system is Fusarium verticillioides (FVE).
In assay [3] the test system is Colectotricum graminicola (CGR). To be noted: standard plate assay, 4,000 spores/mL, ¼× Czapec-Dox V8, 28° C., 24 to 48 hours.
Assay [4] relates to Diplodia maydis (DMA). Conditions: standard plate assay, 6,000 spores/mL, ¼× potato dextrose broth, 28° C., 24 to 48 hours.

Turning to “Domain B (SPKKDEHEHCGKHASFNEEKKECVCHDKSEVFEKHHKKCKKAKDEKKKDDKKH; Domain B of SEQ ID NO34)”, in assay [1], the “antifungal activity against FGR” value is on record as “showed antifungal activity to varying extents”.
Still for that read-out and setting: to “Domain C (KKDKHHDHCGKHASYSEEKKECVCHNKAEVFERKHKKCKKHISLR; Domain C of SEQ ID NO34)” belongs “showed antifungal activity to varying extents”.
The same measure, in the same setting: as for “Domain D (SIFNHCGRHAYYDEAKKECICHDAGKDFLKKHKTCACPQGEKWHHIERKCKA; Domain D of SEQ ID NO34)”, the entry is “showed antifungal activity to varying extents”.
For “SEQ ID NO:1: antipathogenic polypeptide (52 amino acids) isolated from a fungal fermentation broth extract of Fusarium oxysporum, designated LB-12265 (SILHHCGKHASWDHAKSECVCHDSGKVYTKKHHKCKCPKGEKWHHIEKKCKK; PEPTIDE (1)...(52) Predicted mature LB-12265 peptide; listed as Fusarium oxysporum)”, in assay [2], the “antifungal activity against FVE” value is given as “showed antifungal activity”. In assay [1], the “antifungal activity against FGR” value is listed as “showed antifungal activity”. Further, in assay [3], the “antifungal activity against CGR” value was “showed antifungal activity”. Further, in assay [4], the “antifungal activity against DMA” value is on record as “showed antifungal activity”.
Consider “SEQ ID NO:3: deduced amino acid sequence encoded by a nucleotide sequence from a fungal contaminant, most likely Fusarium, of a proprietary maize EST library (SILHHCGKHASWDHAKSECVCHDSGKVYTKKHHKCKCPKGEKWHHIEKKCKK; Deduced amino acid sequence encoded by SEQ ID NO4 from a fungal contaminant of Zea mays)”, for which the “antifungal activity against FVE” value in assay [2] is “has antifungal activity”.

B1: SEQ ID NO:11: Q174 protein isolated from Hypocrea lixii (Accession No. CAA64974) (protein, listed as Hypocrea lixii)
chain: MLLKQVLVAALLSLSSVTAFPNPNNLHDVEARDVEDNLVARGGSHDCGSYASWNNGKNCCVCKDNGKNYDSKSKSCNCPSGYTWNGHQCVHDCGKDATWQYGNCVCNKKGEVYNPKDKTCSCPPGQYWNGKNCQVDCGKDASYDYKQKKCVCKKHGEIYNSNSKTCSCPPGQVWNGYACVVDCGKEAHFDNKQKKCVCNNYGEIYNSGSKTCACPGGQYFNGKKCVCPYGKVWNGKQCVEDCGKEAHFDYNQKKCVCKNNGEVYNSAKKTCSCPDGQYWNGKQCVCPYGQVFNGKQCVPDCGKEATFDYNQKKCVCKNKGEIYDSKTKTCSCPDGQVWNGKQCVCPYGQVFNGKQCVPDCGKDATYDYNQKKCVCKNKGEVFDQKTKTCSCPDGQYWNGKQCACPYGQIFNGKQCVPDCGKDATYDYNQKKCVCKNKGEVFDQKTKTCSCPDGQYWNGKQCVCPYGKIFDGKQCVEDCGKDAHFDNNQKKCVCNKNGEIYDSKSKTCSCPDSQYWDGSKCACPYGTVWDGKHCNQDCGKDAHFDSNQKKCVCNKQGEVYDSKSKTCSCPDGQYWDGSKCACPYGKVWDGKQCVPNCGKDASYDSKQNKCVCKNIGQVFDTKSLTCSCPAGTSWNGHACVQDCGKDAHYDSNQKCCVCNNKGESYDSKSKTCSCPGNQYWDGNKCACPYGSTWDSSKKTCKMNYP
With B1, in assay [2], the “antifungal activity against FVE” value is reported as “showed antifungal activity to varying extents”. Besides, the “antifungal activity against FGR” value in assay [1] is given as “showed antifungal activity to varying extents”. Also, in assay [3], the “antifungal activity against CGR” value is given as “showed antifungal activity to varying extents”. For the same molecule, the “antifungal activity against DMA” value in assay [4] was “showed antifungal activity to varying extents”.
